≈ marks a conversion by molar mass, not a printed value.
Columns and labels:
Format in all cases: functional
[1] = tested on: Saccharomyces cerevisiae; test: Tested for antifungal activity against Saccharomyces cerevisiae ATCC 28 383 after 48 hr incubation; conditions: ATCC 28, 48 h
[2] = tested on: Candida albicans; test: Tested for antifungal activity against Candida albicans CIP 1180-79 after 48 h incubation
[3] = tested on: Candida tropicalis; test: Tested for antifungal activity against 5-FC resistant strain Candida tropicalis CIP 1745-88 after 48 hr incubation
[4] = tested on: Candida albicans; test: Tested for antifungal activity against azole resistant strain Candida albicans CIP 1760-88 after 48 hr incubation
[5] = tested on: Candida tropicalis; test: Tested for antifungal activity against amp B resistant strain Candida tropicalis CIP 1275-81 after 48 hr incubation

Structure (SMILES)	MIC [1] [µg/mL]	MIC [2] [µg/mL]	MIC [3] [µg/mL]	MIC [4] [µg/mL]	MIC [5] [µg/mL]
Nc1nc(=O)[nH]cc1F [FLUCYTOSINE]	6.2 (≈ 48 µM)	50 (≈ 387 µM)	> 100	–	–
CC(C)CCC[C@@H](C)C1CC[C@H]2[C@@H]3[C@@H](N)CC4C[C@@H](O)CC[C@]4(C)[C@H]3CC[C@]12C (some centres undefined)	0.4 (≈ 0.991 µM)	1.5 (≈ 3.72 µM)	3.1 (≈ 7.68 µM)	1.5 (≈ 3.72 µM)	1.5 (≈ 3.72 µM)
CC(C)CCC[C@@H](C)C1CC[C@H]2[C@@H]3[C@H](N)CC4C[C@@H](O)CC[C@]4(C)[C@H]3CC[C@]12C (some centres undefined)	3.1 (≈ 7.68 µM)	6.2 (≈ 15.4 µM)	3.1 (≈ 7.68 µM)	3.1 (≈ 7.68 µM)	1.5 (≈ 3.72 µM)
C[C@@H]1[C@H](O)[C@@H](C)/C=C/C=C/C=C/C=C/C=C/C=C/C=C/[C@H](O[C@@H]2O[C@H](C)[C@@H](O)[C@H](N)[C@@H]2O)C[C@@H]2O[C@](O)(C[C@@H](O)C[C@@H](O)[C@H](O)CC[C@@H](O)C[C@@H](O)CC(=O)O[C@H]1C)C[C@H](O)[C@H]2C(=O)O [AMPHOTERICIN B]	0.3 (≈ 0.325 µM)	0.4 (≈ 0.433 µM)	–	–	12.5 (≈ 13.5 µM)
c1ccc(-c2ccc(C(c3ccccc3)n3ccnc3)cc2)cc1 (centres undefined) [BIFONAZOLE]	6.2 (≈ 20 µM)	12.5 (≈ 40.3 µM)	–	50 (≈ 161 µM)	–
CC(C)CCCC(C)[C@H]1CC[C@H]2C3C(N)C=C4C[C@@H](O)CCC4(C)[C@H]3CCC12C (some centres undefined)	2.4 (≈ 5.97 µM)	2.6 (≈ 6.47 µM)	3.1 (≈ 7.72 µM)	2.3 (≈ 5.73 µM)	1.5 (≈ 3.73 µM)

Reference: ChEMBL document CHEMBL1133852, “Stereoselective synthesis of 7 alpha- and 7 beta-aminocholestanol as potent fungicidal drugs” (2001)
